Laboratory results: patent US20200306295A1, “METHOD AND DEVICE FOR ANNIHILATION OF Staphylococcus aureus” (priority 2017, published 2020)
Values after ≈ are worked out from the molar mass of the structure shown.

Key:
[1] = tested on: S. aureus (ATCC 6538) biofilm; conditions: antibiotic alone
[2] = tested on: MRSA USA400 inside murine macrophage cells (J774); test: Intracellular MRSA infection model in J774 macrophage cells; conditions: infected macrophage cells; vancomycin 2 μg/mL (4×MIC)
[3] = tested on: VRSA NR-46419 (VRSA 9); test: MIC by standard broth-dilution method; assay type: cell-based, S. aureus; conditions: Staphylococcus aureus, N = 3
Excerpt: (§1) For each measurement, three independent replicates were applied.

[4] = tested on: stationary-phase MRSA; assay type: cell-based, S. aureus; conditions: checkerboard assay, MRSA growth inhibition
Method: To monitor the response of bacteria to laser treatment alone, antibiotic treatment alone, or their combinations, bacterial growth was continuously monitored overnight (18 hours with an interval of 30 min at 37° C.) by measuring optical density at 600 nm (OD600). Depending on the specific assay applied, the bacterial cells were suspended in 100 or 200 μl TSB medium under different treatment schemes (antibiotic alone, laser treatment alone, antibiotic plus laser treatment) with a final concentration of ˜10^5 CFU/ml. Bacterial growth was defined as OD600≥0.1.
Stationary-phase bacterial cells was washed and resuspended in 1×PBS at its original concentration. […] The treated droplet was collected and resuspended into 5 ml TSB (1:1000 dilution) for each group. Corresponding groups without laser treatment were also conducted for comparison. The bacterial suspensions were transferred to a 96-well plate with antibiotics supplemented into with the first row of the 96-well plate for eight two-fold serial dilution starting at a desired antibiotic concentration (e.g. ofloxacin: 2 μg/ml). After serial dilution, bacterial growth within the same well plate was monitored by a plate reader for 18 hours (OD600, 37° C.). The checkerboard assay was used for groups with laser treatment alone or laser plus antibiotic treatment. Two independent experiments of checkerboard assay were performed for each antibiotic with or without laser treatment. Based on the readout of OD600, a heat map was created to evaluate the antibiotic potentiation or synergistic effect enabled by STX photolysis.
Based on the checkerboard results, the fractional inhibitory concentration index (FICI), a synergy evaluation method between two antibiotics, was calculated as below: FICI=MIC of antibiotic A in combination/MIC of antibiotic A alone+MIC of antibiotic B in combination/MIC of antibiotic B alone. The interaction of the two antibiotics was defined as below: synergy if FICI≤0.5, no interaction if 0.5<FICI≤4, antagonism if FICI>4^46. […] Considering this reason, the synergy calculation was simplified as below: FICI=MIC of antibiotic A in combination with laser treatment/MIC of antibiotic A alone with synergy defined by FICI≤0.5.

[5] = tested on: MRSA USA300; test: In vivo mice skin infection model (daptomycin, pulsed laser); set-up: species or system BALB/c mice
Method: The in vivo mice experiment was conducted following protocols approved by Boston University Animal Care and Use Committee (BUACUC). To initiate the formation of a skin wound, five groups (N=5) of eight-week-old female BALB/c mice (obtained from the Jackson Laboratory, ME, USA) were disinfected with ethanol (70%) and shaved on the middle of their back (approximately a one-inch by one-inch square region around the injection site) one day prior to infection as described from a reported procedure^45. To prepare the bacterial inoculum, an aliquot of overnight culture of MRSA USA300 was transferred to fresh TSB and shaken at 37° C. until an OD600 value of ˜1.0 was achieved. The cells were centrifuged, washed once with 1×PBS, re-centrifuged, and then re-suspended in 1×PBS. Mice subsequently received an intradermal injection (40 μl) containing ˜10^9 CFU/ml MRSA USA300. An open wound formed at the site of injection for each mouse, ˜48 hours post-infection. Topical treatment was initiated subsequently with each group of mice receiving the following: daptomycin (1%, using glycerol as the vehicle), pulsed laser (1 cm diameter illumination area, 10 min treatment time, 120 mW), or a combination of pulsed laser and daptomycin. One group of mice was left as the control. […] Data were analyzed via an unpaired t-test, utilizing Origin 2019b (OriginLab Corporation).

[6] = tested on: VRSA and multidrug-resistant MRSA clinical isolates; test: Time-killing assay on resistant clinical isolates; assay type: cell-based, S. aureus; conditions: 10 MIC daptomycin and laser treatment
Method: (§2) To quantify viable bacterial cells, CFU experiments were performed. 100 μl of sample analyte was transferred into a 96-well plate and then three or four ten-fold serial dilution achieved by transferring 20 μl bacterial culture into 180 μl 1×PBS in the next dilution row. After serial dilution, an aliquot (4 μl) from each well was spotted onto sterile TSA plates. After incubating the plates overnight (˜18 hours) at 37° C., the colonies were enumerated, and cell number was calculated in CFU/ml. For each CFU enumeration experiment, three independent replicates were applied.
Stationary-phase MRSA was prepared, washed and resuspended in 1×PBS at two-times of its original concentration. […] After laser treatment, the droplets were resuspended into 200 μl of 1×PBS (1:40 dilution) supplemented with antibiotics at different concentrations in a mini centrifuge tube (89166-278, VWR international). For example, daptomycin was added into MRSA solution after laser treatment at desired concentration of 0×MIC, 5×MIC, 10×MIC, 30×MIC, or 100×MIC supplemented with 50 μg/ml CaCl2). Corresponding groups without laser treatment were also conducted for comparison. These tubes were incubated within an orbital incubator (37° C., 200 rpm) for different incubation time. At each specific time point, 40 μl of aliquot from each group was transferred to a 96-well plate for follow-up CFU enumerating assay. […]

[7] = tested on: stationary-phase MRSA; test: Time-killing assay in PBS with or without pulsed laser (CFU enumeration); assay type: cell-based, S. aureus; conditions: after 6 hours in PBS
Method: as §2
Stationary-phase MRSA was prepared, washed and resuspended in 1×PBS at two-times of its original concentration. […] After laser treatment, the droplets were resuspended into 200 μl of 1×PBS (1:40 dilution) supplemented with antibiotics at different concentrations in a mini centrifuge tube (89166-278, VWR international). For example, daptomycin was added into MRSA solution after laser treatment at desired concentration of 0×MIC, 5×MIC, 10×MIC, 30×MIC, or 100×MIC supplemented with 50 μg/ml CaCl2). Corresponding groups without laser treatment were also conducted for comparison. These tubes were incubated within an orbital incubator (37° C., 200 rpm) for different incubation time. At each specific time point, 40 μl of aliquot from each group was transferred to a 96-well plate for follow-up CFU enumerating assay. In the case of tobramycin, additional antibiotic washing by 1×PBS was performed before the CFU experiment to avoid antibiotic interference. For time-killing assay in fresh human whole blood, similar protocol was followed as above, except that 1×PBS was replaced by fresh human whole blood and the initial stationary-phase MRSA solution was diluted by ten times with a concentration of ˜10^7 CFU/ml.

[8] = tested on: MRSA NRS384 (MRSA USA 300); test: MIC by standard broth-dilution method; assay type: cell-based, S. aureus; conditions: Staphylococcus aureus; MRSA NRS384 (MRSA USA 300); N = 3; read-out: MIC
Excerpt: as §1

[9] = tested on: stationary-phase MRSA; test: Daptomycin-BODIPY membrane insertion assay; assay type: cell-based, S. aureus; conditions: daptomycin labeled with BODIPY
Method: To study how the membrane fluidity change affects the insertion of membrane-targeting antibiotics, we applied daptomycin-BODIPY membrane insertion assay detailed as below. Firstly, we conjugated daptomycin with a fluorescent dye, BODIPY STP ester (B10006, Thermo Fisher Scientific). Briefly, 10 mg of daptomycin (103060-53-3, Acros Organics) was dissolved into 1 ml of 0.1 M sodium bicarbonate solution. Then 100 μl of BODIPY STP ester (B10006, Thermo Fisher Scientific, stock: 1 mg/ml in DMSO) was added to the daptomycin solution drop by drop. Then the mixed solution reacted under stirring at room temperature for 1 hour. Afterwards, the solution was under overnight dialysis against extensive 0.1 M sodium bicarbonate solution. After dialysis, the mixed solution was lyophilized. […] After treatment, bacterial droplets were collected into 985 μl of sterile pre-warned TSB medium containing 150 μg/ml of CaCl2. 10 μl of daptomycin-BODIPY (stock: 3 mg/ml in 1×PBS) was added to the above solution, and incubated for 30 min at 37° C. […] Confocal laser scanning microscope (FV3000, Olympus) was conducted to quantify daptomycin-BODIPY distribution and its signal intensity at an excitation wavelength of 488 nm. Quantitative analysis of the signal from individual MRSA cells was performed among groups with different laser treatment time.

Q: Which “MRSA killed inside biofilm” value [1] does the source give for `CN[C@H](CC(C)C)C(=O)N[C@H]1C(=O)N[C@@H](CC(N)=O)C(=O)N[C@H]2C(=O)N[C@H]3C(=O)N[C@H](C(=O)N[C@H](C(=O)O)c4cc(O)cc(O)c4-c4cc3ccc4O)[C@H](O)c3ccc(c(Cl)c3)Oc3cc2cc(c3O[C@@H]2O[C@H](CO)[C@@H](O)[C@H](O)[C@H]2O[C@H]2C[C@](C)(N)[C@H](O)[C@H](C)O2)Oc2ccc(cc2Cl)[C@H]1O` [Vancomycin, vancomycin] here?
A: 70%

Q: What about the “killing of intracellular MRSA 400 (CFU)” value [2] of the same compound?
A: no effect

Q: And the MIC [3]?
A: 256 µg/mL (≈ 177 µM)

Q: And the “synergism between laser treatment and antibiotic” value [4]?
A: no synergism

Q: Which results are given for `CCCCCCCCCC(=O)N[C@@H](Cc1c[nH]c2ccccc12)C(=O)N[C@H](CC(N)=O)C(=O)N[C@@H](CC(=O)O)C(=O)N[C@@H]1C(=O)NCC(=O)N[C@@H](CCCN)C(=O)N[C@@H](CC(=O)O)C(=O)N[C@H](C)C(=O)N[C@@H](CC(=O)O)C(=O)NCC(=O)N[C@H](CO)C(=O)N[C@@H]([C@H](C)CC(=O)O)C(=O)N[C@@H](CC(=O)c2ccccc2N)C(=O)O[C@@H]1C` [Daptomycin, daptomycin]?
A: cell killing in infected skin (CFU) ([5]; 10 mg/ml daptomycin alone, topical): 81%; cell killing in infected skin (CFU) ([5]; 10 mg/ml daptomycin plus 10 min laser): around 95%; eradication by synergistic therapy [6]: effective in eradicating; reduction of stationary-phase MRSA ([7]; 10 MIC with 5 min laser treatment): more than 3.5 log; reduction of stationary-phase MRSA ([7]; antibiotic alone at 100 MIC): 1 log; MIC [8]: 8 µg/mL (≈ 4.94 µM); cellular uptake / membrane insertion with laser treatment vs untreated [9]: significantly more daptomycin uptake
